Here are results for four compounds from BindingDB's records for doi:10.1016/j.bmcl.2007.04.009 (Bristol-Myers Squibb, 2007).

This assay concerns the target T1, Fatty-acid amide hydrolase 1 (Homo sapiens, UniProt O00519).
T1 sequence (O00519 whole entry): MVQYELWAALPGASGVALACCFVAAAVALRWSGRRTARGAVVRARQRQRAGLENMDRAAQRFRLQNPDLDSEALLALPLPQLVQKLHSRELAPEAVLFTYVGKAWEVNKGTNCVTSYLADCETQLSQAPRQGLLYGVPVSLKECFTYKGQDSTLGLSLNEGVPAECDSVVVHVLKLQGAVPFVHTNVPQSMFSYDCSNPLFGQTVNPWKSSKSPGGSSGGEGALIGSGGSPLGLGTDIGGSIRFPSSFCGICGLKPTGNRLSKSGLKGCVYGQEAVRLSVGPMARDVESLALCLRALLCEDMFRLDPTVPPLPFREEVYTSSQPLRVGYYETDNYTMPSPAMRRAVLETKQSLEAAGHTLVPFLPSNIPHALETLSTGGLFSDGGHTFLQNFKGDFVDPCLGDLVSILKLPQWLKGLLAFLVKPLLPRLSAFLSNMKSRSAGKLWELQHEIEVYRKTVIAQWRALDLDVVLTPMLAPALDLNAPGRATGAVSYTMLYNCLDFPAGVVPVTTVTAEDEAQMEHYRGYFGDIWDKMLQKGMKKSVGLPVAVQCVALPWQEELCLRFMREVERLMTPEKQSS
The assay can be described thus: FAAH Inhibition Assay. As to conditions: pH 9; 22 °C. The method, then:
FAAH Inhibition Assay [3H]Ethanolamine produced from [3H]AEA hydrolysis was used to calculate FAAH activity and was measured by scintillation counting of the aqueous phase after extraction of the incubation mixture. Data were expressed as the percentage of [3H]-ethanolamine formed versus vehicle, after subtraction of the background radioactivity determined in the presence of arachidonyl trifluoromethyl ketone (ATFMK), an inhibitor of FAAH. IC50 values were determined using a four-parameter logistic equation for dose-response curves.

Some results are limits rather than exact numbers.

As to `CCOC(=O)CCCCCCCn1c(CC)nc(-c2ccccc2)c1-c1ccccc1` [ethyl 8-(2-ethyl-4,5-diphenyl-1H-imidazol-1-yl)octanoate], the IC50 stood at 31 nM. The same measure for `CCOC(=O)C(C)CCCCCn1c(C)nc(-c2ccccc2)c1-c1ccccc1` (racemic) [D, L mixtures]: 130 nM. `CCOC(=O)C(CC)CCCCCn1c(C)nc(-c2ccccc2)c1-c1ccccc1` (centres undefined) [D, L mixtures] came in with a concentration for half-maximal inhibition (IC50) of 9900 nM. Next, `CCOC(=O)C(CCCCCn1c(C)nc(-c2ccccc2)c1-c1ccccc1)C(C)C` (racemic) [D, L mixtures]: above 100000 nM.

The term IC50 denotes the midpoint of a concentration-inhibition curve.
